≈ marks a conversion by molar mass, not a printed value. Where “and” joins values, the source holds several entries; their conditions need not be identical. Equal entries are not always repeated. Where two headings read alike, the source gives them in different places. *1 amine or outer side, *2 acyl side, *3 side chain or, on linkers, in order; H or OH if unused. Where a SMILES comes first, the peptide text is derived from it. Bridges are numbered along the chain shown (N, C = ends). Roman numbers before positions name the chains, in order. [ ]: non-standard residue; d: D form. X6 = O=C([C@@H](N[*:1])[C@H](OCC=[*:3])c1ccccc1)[*:2]; NMeLeu(5-OH,4R) = CN[C@@H](C[C@@H](C)CO)C(=O)O; Trp(1-Me) = Cn1cc(C[C@H](N)C(=O)O)c2ccccc21; NMeL = CN[C@@H](CC(C)C)C(=O)O
Columns and labels:
[1] = in vitro; conditions: human
How it was run: (§1)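 Permeability across Caco-2 monolayers was measured in both directions, apical-to-basolateral and basolateral-to-apical, in 10^-6 cm s-1. Efflux ratio = P(B−A)/P(A−B). Intrinsic permeability is the mean of P(A−B) and P(B−A).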

[2] = system: Caco-2 monolayers; assay: in vitro; conditions: mean value of P(A−B) and P(B−A)
How it was run: as §1

[3] = target: His6-tagged ClpC1-NTD substrate, M. smegmatis ClpC1P1P2 (UniProt A0R574+P9WPC9); assay: biochemical; type: biochemical; conditions: Msm; Measurement 1-6; read-out: 1-Dmax, single measurements
Sequence of His6-tagged ClpC1-NTD substrate, M. smegmatis ClpC1P1P2 (P9WPC9 1-156, looked up, natural form): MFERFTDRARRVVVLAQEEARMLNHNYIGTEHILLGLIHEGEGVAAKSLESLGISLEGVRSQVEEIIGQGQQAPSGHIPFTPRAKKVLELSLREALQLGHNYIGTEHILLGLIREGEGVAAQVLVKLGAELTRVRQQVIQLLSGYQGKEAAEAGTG
Sequence of His6-tagged ClpC1-NTD substrate, M. smegmatis ClpC1P1P2 (A0R574 whole entry): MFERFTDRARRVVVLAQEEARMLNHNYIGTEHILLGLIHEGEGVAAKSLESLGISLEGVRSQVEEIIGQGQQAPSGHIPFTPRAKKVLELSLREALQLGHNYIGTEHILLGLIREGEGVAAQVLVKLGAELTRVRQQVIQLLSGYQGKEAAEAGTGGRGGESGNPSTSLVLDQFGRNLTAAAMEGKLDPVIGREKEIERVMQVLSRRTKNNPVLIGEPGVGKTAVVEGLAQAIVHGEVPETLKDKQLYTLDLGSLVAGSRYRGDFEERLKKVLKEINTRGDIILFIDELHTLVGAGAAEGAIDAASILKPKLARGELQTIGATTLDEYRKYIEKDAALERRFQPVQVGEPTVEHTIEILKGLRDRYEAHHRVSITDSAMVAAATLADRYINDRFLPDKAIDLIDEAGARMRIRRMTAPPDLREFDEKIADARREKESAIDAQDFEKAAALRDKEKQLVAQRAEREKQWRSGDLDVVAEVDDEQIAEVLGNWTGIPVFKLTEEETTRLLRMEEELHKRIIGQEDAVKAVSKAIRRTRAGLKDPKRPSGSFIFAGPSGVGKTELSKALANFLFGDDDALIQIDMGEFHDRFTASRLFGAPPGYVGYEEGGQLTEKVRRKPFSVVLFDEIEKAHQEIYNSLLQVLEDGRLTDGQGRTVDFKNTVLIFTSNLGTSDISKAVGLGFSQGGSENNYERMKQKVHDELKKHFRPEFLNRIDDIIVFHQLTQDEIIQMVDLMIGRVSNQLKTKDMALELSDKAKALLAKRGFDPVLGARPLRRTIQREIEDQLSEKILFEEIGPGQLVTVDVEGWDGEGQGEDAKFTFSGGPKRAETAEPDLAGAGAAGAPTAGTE

[4] = result in words
[5] = type: in vitro ADME, Mice
How it was run: (§2)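 1 µmol/l cpd + 0.5 mg/ml microsomes, Tris-HCl 100 mM pH 7.5 / MgCl2 6.5 mM / NADPH 1 mM, 37 °C. Timed acetonitrile quench, spin, supernatant by HPLC-MS/MS. t1/2 from first-order decay → clearance %Qh, well-stirred model.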

[6] = target: ClpC1-NTD substrate, M. tuberculosis ClpC1P1P2 (Mycobacterium tuberculosis, UniProt P9WPC9); assay: biochemical; type: biochemical; conditions: Mtb
Sequence of ClpC1-NTD substrate, M. tuberculosis ClpC1P1P2 (P9WPC5 whole entry): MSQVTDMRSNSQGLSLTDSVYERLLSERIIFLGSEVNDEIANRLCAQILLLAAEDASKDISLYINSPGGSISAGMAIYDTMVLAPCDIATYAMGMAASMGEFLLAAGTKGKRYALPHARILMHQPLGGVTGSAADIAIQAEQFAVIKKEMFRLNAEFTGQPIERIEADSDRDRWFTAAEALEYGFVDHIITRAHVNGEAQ
Sequence of ClpC1-NTD substrate, M. tuberculosis ClpC1P1P2 (P9WPC9 whole entry): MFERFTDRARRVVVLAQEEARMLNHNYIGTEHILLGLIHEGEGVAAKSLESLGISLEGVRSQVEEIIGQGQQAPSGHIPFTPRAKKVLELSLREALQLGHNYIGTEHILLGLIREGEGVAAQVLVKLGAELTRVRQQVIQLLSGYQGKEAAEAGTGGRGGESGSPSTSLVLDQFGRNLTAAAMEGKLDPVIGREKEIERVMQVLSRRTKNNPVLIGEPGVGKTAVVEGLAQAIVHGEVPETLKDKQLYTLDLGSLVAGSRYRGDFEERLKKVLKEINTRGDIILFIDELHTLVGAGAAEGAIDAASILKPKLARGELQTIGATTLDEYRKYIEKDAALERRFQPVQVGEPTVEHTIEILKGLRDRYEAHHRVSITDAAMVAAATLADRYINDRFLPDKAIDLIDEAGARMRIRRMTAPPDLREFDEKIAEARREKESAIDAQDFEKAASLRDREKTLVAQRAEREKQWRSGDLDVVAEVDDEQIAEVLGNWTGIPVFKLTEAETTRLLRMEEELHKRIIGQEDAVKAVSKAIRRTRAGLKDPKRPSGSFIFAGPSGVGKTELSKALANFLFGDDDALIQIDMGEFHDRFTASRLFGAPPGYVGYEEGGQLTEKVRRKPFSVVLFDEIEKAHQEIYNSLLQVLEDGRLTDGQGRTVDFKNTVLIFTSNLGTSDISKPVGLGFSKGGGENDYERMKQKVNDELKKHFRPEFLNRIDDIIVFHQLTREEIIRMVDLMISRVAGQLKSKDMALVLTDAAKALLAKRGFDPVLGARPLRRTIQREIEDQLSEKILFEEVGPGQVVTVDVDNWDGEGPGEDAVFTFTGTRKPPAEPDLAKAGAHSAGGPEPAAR
Sequence of ClpC1-NTD substrate, M. tuberculosis ClpC1P1P2 (P9WPC3 whole entry, further chain): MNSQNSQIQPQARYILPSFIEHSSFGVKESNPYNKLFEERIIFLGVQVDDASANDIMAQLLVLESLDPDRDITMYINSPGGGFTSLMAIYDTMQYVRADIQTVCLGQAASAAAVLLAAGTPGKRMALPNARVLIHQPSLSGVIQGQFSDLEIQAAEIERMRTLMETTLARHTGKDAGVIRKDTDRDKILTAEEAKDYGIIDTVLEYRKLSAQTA

[7] = Microsomal stability, human; type: in vitro ADME
How it was run: as §2

[8] = type: in vitro ADME, Rat
How it was run: as §2

[9] = Hepatocyte stability, mice; type: in vitro ADME
How it was run: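 Clearance expressed as % of liver blood flow (% Qh), derived from half-life via the well-stirred liver model. Compound at 1 µM final was incubated up to 6 h with ~1 million cells/mL hepatocytes in 50% serum buffer, 37 °C, pH 7.4.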

[10] = target: ClpC1 NTD protein (M. tuberculosis) (Mycobacterium tuberculosis, UniProt P9WPC9); assay: biochemical; type: binding
Sequence of ClpC1 NTD protein (M. tuberculosis) (P9WPC9 1-156, looked up, natural form): as the sequence (P9WPC9 1-156, looked up, natural form) above

[11] = type: in vitro ADME, Rat; remark: listed apart in the source
[12] = system: Msm 607; assay: microbe, parasite or virus in culture; type: cell-based
[13] = system: Mycobacterium fortuitum; assay: microbe, parasite or virus in culture; type: cell-based
[14] = system: Mtb # 8673; assay: microbe, parasite or virus in culture; type: cell-based
[15] = system: Mtb (katG del) ATCC 35822; assay: microbe, parasite or virus in culture; type: cell-based; conditions: Mycobacterium tuberculosis
[16] = system: non-replicating cells of Mtb H37Rv; type: cell-based, Mycobacterium tuberculosis
[17] = system: Mtb H37Rv in THP-1 macrophages; assay: Intracellular MIC assay in THP-1 macrophages; type: cell-based, Mycobacterium tuberculosis; conditions: H37RV, 19.44 µM
[18] = system: Mtb (moxR) FNDR-M1; assay: microbe, parasite or virus in culture; type: cell-based
[19] = system: Mycobacterium avium; assay: microbe, parasite or virus in culture; type: cell-based
[20] = system: Mycobacterium abscessus; assay: microbe, parasite or virus in culture; type: cell-based
[21] = system: Mtb # 11291; assay: microbe, parasite or virus in culture; type: cell-based; conditions: for MIC: read-out: MIC Mtb # 11291
[22] = system: Mycobacterium intracellulare; assay: microbe, parasite or virus in culture; type: cell-based; conditions: Mycobacterium intracellulare; mean ± SD; read-out: MIC Mycobacterium intracellulare
[23] = system: M. tuberculosis H37Rv (ATCC 27294); assay: microbe, parasite or virus in culture; type: cell-based; conditions: Mycobacterium tuberculosis
[24] = system: Mtb ATCC 35825; assay: microbe, parasite or virus in culture; type: cell-based
[25] = Experiment 2, three replicate columns
[26] = Mycobacterium tuberculosis, mean, n = 2 well replicates
[27] = Mycobacterium tuberculosis, single well replicates

## CC(C)C[C@H]1C(=O)N[C@@H](C(C)C)C(=O)N[C@@H](Cc2cn(C)c3ccccc23)C(=O)N(C)[C@@H](C[C@@H](C)CO)C(=O)N[C@@H](C)C(=O)N[C@@H]([C@H](OC/C=C/CO[C@H](c2ccccc2)[C@@H]2NC(=O)[C@H](C)NC(=O)[C@H](C[C@@H](C)CO)N(C)C(=O)[C@H](Cc3cn(C)c4ccccc34)NC(=O)[C@H](C(C)C)NC(=O)[C@H](CC(C)C)N(C)C(=O)[C@H](C(C)C)NC2=O)c2ccccc2)C(=O)N[C@@H](C(C)C)C(=O)N1C [Compound 17] (I: cyclo(A[X6]V[NMeL]V[Trp(1-Me)][NMeLeu(5-OH,4R)]) / II: cyclo(A[X6]V[NMeL]V[Trp(1-Me)][NMeLeu(5-OH,4R)]); staple (E) I:2-II:2)
[1]; Caco-2, CACO permeability PEAB, apical to basolateral
  Papp A→B: < 2.5 ×10⁻⁶ cm/s
[1]; Caco-2, Caco-2 permeability P (B-A), basolateral to apical
  Papp B→A: 0.9 ×10⁻⁶ cm/s
[2]
  Caco-2 Int. Perm: 1.7 10-6 cm s-1
[3]
  1-Dmax (percent substrate remaining at maximal degradation): 30.2%
[4]
  stability upon storage: compound decomposition upon storage
[5]; Mouse
  Microsomal Stability Mouse QH: <24.200%
[5]; clearance in microsomes
  Microsomal Stability Mice: < 24 %Qh
[6]; Measurement 1-4, read-out: DC50, single measurements
  DC50: > 100 µM
[6]; mean of the measurements, read-out: DC50, Mean
  DC50: > 100 µM
[7]; Human
  Microsomal Stability Human QH: <24.400%
[7]; clearance in microsomes
  Microsomal Stability Human: < 24 %Qh
[8]; Rat
  Microsomal Stability Rat QH: <23.100%
[8]; clearance in microsomes
  Microsomal Stability Rat: < 23 %Qh
[9]; Mouse
  Hepatocyte Stability Mouse QH: 20.539%
[9]; clearance in hepatocytes
  Hepatocyte Mice: 21 %Qh
[10]; SPR (Supplementary Table 1), read-out: KD ClpC1-NTD Mean ± SD
  Kd: 0.023 ± 0.005 µM
[10]; SPR, single independent measurements
  koff ClpC1-NTD: 0.004 s⁻¹
[10]; SPR, single independent measurements, read-out: KD ClpC1-NTD
  Kd: 0.0267 µM and 0.019 µM
[10]; SPR, single independent measurements, read-out: koff ClpC1-NTD
  koff: 0.005 s⁻¹
[11]; Rat
  Hepatocyte Stability Rat QH: 12.036%
[11]; clearance in hepatocytes
  Hepatocyte Rat: 12 %Qh

## CO[C@H]1/C=C/O[C@@]2(C)Oc3c(C)c(O)c4c(O)c(c(/C=N/N5CCN(C)CC5)c(O)c4c3C2=O)NC(=O)/C(C)=C\C=C\[C@H](C)[C@H](O)[C@@H](C)[C@@H](O)[C@@H](C)[C@H](OC(C)=O)[C@@H]1C [Rifampicin, reference compound]
[12]; Mycolicibacterium smegmatis, 607, read-out: MIC Msm #607, individual example (Supplementary Table 11)
  MIC: 9.7 µM and 8 µg/mL
[12]; Mycolicibacterium smegmatis, ATCC607, Set-3, done at a different day than Set 1 and Set 2, read-out: MIC (Msm ATCC607) Set-3
  MIC: 9.72 µM and 8 µg/mL
[12]; Mycolicibacterium smegmatis, ATCC607, mean of 3 experiments ± SD, read-out: MIC including standard deviations (Msm ATCC607)
  MIC: 13 µM and 10.6 µg/mL
[12]; Mycolicibacterium smegmatis, ATCC607, read-out: MIC (Msm ATCC607) Set-1
  MIC: 9.72 µM and 8 µg/mL
[12]; Mycolicibacterium smegmatis, ATCC607, read-out: MIC (Msm ATCC607) Set-2
  MIC: 19.4 µM and 16 µg/mL
[13]; [25]
  MIC (µg/ml) Mycobacterium fortuitum: 1 µg/mL (≈ 1.22 µM)
[13]; Experiment 2, three replicate columns, read-out: MIC (µM) Mycobacterium fortuitum
  MIC: 1.22 µM
[13]; Mycolicibacterium fortuitum, Experiment 2, three replicate columns, read-out: MIC (µM) Mycobacterium fortuitum
  MIC: 1.22 µM
[13]; Mycolicibacterium fortuitum, Experiment 2, three replicate columns, read-out: MIC (µg/ml) Mycobacterium fortuitum
  MIC: 1 µg/mL
[13]; Mycolicibacterium fortuitum, mean ± SD, read-out: MIC Mycobacterium fortuitum
  MIC: 1.2 µM
[14]; [26]
  MIC: 38.9 µM and 32 µg/mL
[14]; [27]
  MIC: 38.9 µM and 32 µg/mL
[14]; single well replicates
  MIC: 38.88 µM (≈ 32000 ng/mL)
  MIC Mtb # 8673: 32 µg/mL (≈ 38.9 µM)
[15]; ATCC35822, M. tuberculosis ATCC 35822, single well replicates
  MIC: 0.00949 µM (≈ 7.81 ng/mL)
[15]; ATCC35822, Mtb (katG del) ATCC 35822, mean ± SD, n = 3 well replicates
  MIC: 0.01 µM (≈ 8.23 ng/mL)
[16]
  inhibitory activity on non-growing Mtb H37Rv: retained a partial inhibitory activity
[17]; 96 h
  intracellular viable mycobacteria: 4.26 log10 cfu/ml
[17]; 168 h
  intracellular viable mycobacteria: 3.56 log10 cfu/ml
[18]; M. tuberculosis FNDR-M1, single well replicates
  MIC: 0.019 µM and 0.00949 µM (2×)
[18]; Mycobacterium tuberculosis, Mtb (moxR) FNDR-M1, mean ± SD, n = 3 well replicates
  MIC: 0.01 µM (≈ 8.23 ng/mL)
[19]; [25]
  MIC (µg/ml) Mycobacterium avium: 0.25 µg/mL (≈ 0.304 µM)
[19]; Experiment 2, three replicate columns, read-out: MIC (µM) Mycobacterium avium
  MIC: 0.30 µM
[19]; Mycobacterium avium, Experiment 2, three replicate columns, read-out: MIC (µM) Mycobacterium avium
  MIC: 0.3 µM
[19]; Mycobacterium avium, Experiment 2, three replicate columns, read-out: MIC (µg/ml) Mycobacterium avium
  MIC: 0.25 µg/mL
[19]; Mycobacterium avium, mean ± SD, read-out: MIC Mycobacterium avium
  MIC: 0.3 µM
[20]; [25]
  MIC (µg/ml) Mycobacterium abscessus: 8 µg/mL (≈ 9.72 µM)
[20]; Experiment 2, three replicate columns, read-out: MIC (µM) Mycobacterium abscessus
  MIC: 9.72 µM
[20]; Mycobacteroides abscessus, Experiment 2, three replicate columns, read-out: MIC (µM) Mycobacterium abscessus
  MIC: 9.72 µM
[20]; Mycobacteroides abscessus, Experiment 2, three replicate columns, read-out: MIC (µg/ml) Mycobacterium abscessus
  MIC: 8 µg/mL
[20]; Mycobacteroides abscessus, mean ± SD, read-out: MIC Mycobacterium abscessus
  MIC: 9.7 µM
[21]; [26]
  MIC: 0.005 µM and 0.004 µg/mL
[21]; [27]
  MIC: 0.005 µM and 0.004 µg/mL
[21]; single well replicates
  MIC Mtb # 11291: 0.004 µg/mL (≈ 0.00486 µM)
  MIC: 0.005 µM (≈ 4.11 ng/mL)
[22]
  MIC: 0.2 µM (≈ 165 ng/mL)
[23]; M. tuberculosis H37Rv 27294, single well replicates, read-out: MIC
  MIC: 0.00949 µM (≈ 7.81 ng/mL)
[23]; Mtb H37Rv, mean ± SD, n = 3 well replicates, read-out: MIC
  MIC: 0.01 µM (≈ 8.23 ng/mL)
[23]; Set 1, read-out: MIC (Mtb H37Rv) Set 1
  MIC: 0.00948 µM and 0.0078 µg/mL
[23]; Set 2, read-out: MIC (Mtb H37Rv) Set 2
  MIC: 0.00948 µM and 0.0078 µg/mL
[23]; Set 3, done at a different day than Set 1 and Set 2, read-out: MIC (Mtb H37Rv) Set 3
  MIC: 0.00948 µM and 0.0078 µg/mL
[23]; individual example (Supplementary Table 11), read-out: MIC Mtb H37Rv
  MIC: 0.01 µM and 0.01 µg/mL
[23]; mean of 3 experiments +/- SD, unit taken from the sets above in the same table, read-out: MIC data (Mtb H37Rv) (+/- SD)
  MIC: 0.009 µM and 0.0078 µg/mL
[24]; Mycobacterium tuberculosis, ATCC35825, mean, n = 2 well replicates
  MIC: 0.005 µM and 0.004 µg/mL
[24]; Mycobacterium tuberculosis, ATCC35825, single well replicates
  MIC: 0.004 µg/mL and 0.005 µM
[24]; single well replicates
  MIC: 0.005 µM (≈ 4.11 ng/mL)
  MIC Mtb ATCC 35825: 0.004 µg/mL (≈ 0.00486 µM)
